Assay: Stability evaluation of drug-excipient blend (impurities initially and after storage)
Type: physicochemical
Protocol: According to the present invention stability of drug-excipient blend was evaluated based on percentage w/w of 2-((R)-3-(diisopropylamino)-1-phenylpropyl)-4-(hydroxymethyl)phenol impurity (H-FTFRC-01) and total impurities present in drug-excipient blend, initially and after storage for one month at 40° C. and 75% relative humidity.

H-FTFRC-01 impurity (40° C./75% RH, 1 month): 0.524 % w/w
Total Impurities (40° C./75% RH, 1 month): 1.245 % w/w
H-FTFRC-01 impurity (Initial): 0.284 % w/w
Total Impurities (Initial): 0.800 % w/w
Compound: CC(C)C(=O)Oc1ccc(CO)cc1[C@H](CCN(C(C)C)C(C)C)c1ccccc1.O=C(O)/C=C/C(=O)O [Fesoterodine fumarate, isobutyric acid 2-((R)-3-diisopropylammonium-1phenylpropyl)-4-(hydroxymethyl) phenyl ester hydrogen fumarate]

Source: patent US20150182629A1, “STABLE COMPOSITIONS OF FESOTERODINE” (HETERO RESEARCH FOUNDATION, priority 2012, published 2015)
